Source: patent publication US5807854A, “Pyrimidone derivatives with antifungal activity” (J. Uriah & Cia. S.A., priority 1995, dated 1998)
In brackets after ≈: the same amount, converted by molar mass.

Tests used:
Aspergillus fumigatus = experiment: In vitro activity by the agar dilution method, Aspergillus fumigatus; format: cell-based; settings: 120 h, Kimmig's agar, 25° C., 5 days, read-out: MIC (minimal inhibitory concentration), Asp. fumigatus
Protocol: (§1) In vitro activity was evaluated against C. albicans, C. krusei, and Aspergillus fumigatus by the agar dilution method. Test strains were either clinical isolates or were obtained from ATCC. Stock solutions containing 800 μg/mL were prepared by solving the test products in 50% ethanol. The culture medium used was Kimmig's agar (K. A., E. Merck) supplemented with 0.5% glycerol. Plates containing serial dilutions (80 to 0.025 gg/imL) of the test products were inoculated with 10 μL of the fungal inocula, containing 10^5 colony forming units (cfu)/mL. Plates were incubated at 25° C. during 48 h for Candida sp. and during 5 days for Apergillus fumigatus. Following incubation MICs (minimal inhibitory concentrations) were determined.

C. albicans = experiment: In vitro activity by the agar dilution method, C. albicans; format: cell-based; settings: Candida albicans; Kimmig's agar, 25° C., 48 h; read-out: MIC (minimal inhibitory concentration), C. albicans
Protocol: as §1

C. krusei = experiment: In vitro activity by the agar dilution method, C. krusei; format: cell-based; settings: Pichia kudriavzevii; Kimmig's agar, 25° C., 48 h; read-out: MIC (minimal inhibitory concentration), C. krusei
Protocol: as §1

Candida albicans = experiment: In Vivo Activity (Systemic Candidiasis); settings: po, 576 h, male mice, i.v. infection, read-out: protection on the day where all the animals in the control group had died; for responders at 10 mg/kg: orally at 10 mg/kg (asterisk) at 1, 4 and 24 h after infection; for responders at 1 mg/kg: orally at 1 mg/kg at 1, 4 and 24 h after infection
Protocol: Groups of 10 male mice were inoculated i.v. with 0.2 mL of a suspension containing (2-8)×10^7 cfu/mL of Candida albicans. Compounds were administered orally at 1 mg/kg (or at 10 mg/kg for those compounds marked with an asterisk) at times 1, 4 and 24 h after infection.

systemic aspergillosis = experiment: In Vivo Activity (Systemic Aspergillosis); design: species or system mice; settings: p.o. 20 mg/kg/day, 5 days; control mortality on day 25 was 90%

Row | Structure (SMILES) | MIC (Aspergillus fumigatus) [µg/mL] | MIC (C. albicans) [µg/mL] | MIC (C. krusei) [µg/mL] | responders at 10 mg/kg (Candida albicans) [%] | protection on day 25 postinfection (systemic aspergillosis) | responders at 1 mg/kg (Candida albicans) [%]
1 | C[C@@H](n1cnc2cc(Cl)ccc2c1=O)[C@](O)(Cn1cncn1)c1ccc(F)cc1F [Example 1, (1R,2R)-7-Chloro-3-[2-(2,4-difluorophenyl)-2-hydroxy-1-methyl-3-(1H-1,2,4-triazol-1-yl)propyl]quinazolin-4(3H)-one] | 0.31 (≈ 0.718 µM) | ≤ 0.03 | 0.63 (≈ 1.46 µM) | 100 | 60-100% | 
2 | C[C@@H](n1cnc2cc(C#N)ccc2c1=O)[C@](O)(Cn1cncn1)c1ccc(F)cc1F [Example 2, (1R,2R)-7-Cyano-3-[2-(2,4-difluorophenyl)-2-hydroxy-1-methyl-3-(1H-1,2,4-triazol-1-yl)propyl]quinazolin-4(3H)-one] | 1.25 (≈ 2.96 µM) | ≤ 0.03 | 1.25 (≈ 2.96 µM) |  | 60-100% | 
3 | C[C@@H](n1cnc2cc(C(F)(F)F)ccc2c1=O)[C@](O)(Cn1cncn1)c1ccc(F)cc1F [Example 16, (1R,2R)-3-[2-(2,4-Difluorophenyl)-2-hydroxy-1-methyl-3-(1H-1,2,4-triazol-1-yl)propyl]-7-trifluoromethylquinazolin-4(3H)-one] | 2.5 (≈ 5.37 µM) | ≤ 0.03 | 0.63 (≈ 1.35 µM) |  | 60-100% | 100
4 | C[C@@H](n1cnc2cc(OCC(F)(F)C(F)F)ccc2c1=O)[C@](O)(Cn1cncn1)c1ccc(F)cc1F [Example 17, (1R,2R)-3-[2-(2,4-Difluorophenyl)-2-hydroxy-1-methyl-3-(1H-1,2,4-triazol-1-yl)propyl]-7-(2,2,3,3-tetrafluoropropoxy)quinazolin-4(3H)-one] | 20 (≈ 37.9 µM) | ≤ 0.03 | 0.63 (≈ 1.19 µM) |  |  | 100
5 | C[C@@H](n1cnc2cc(OCC(F)(F)F)ccc2c1=O)[C@](O)(Cn1cncn1)c1ccc(F)cc1F [Example 20, (1R,2R)-3-[2-(2,4-Difluorophenyl)-2-hydroxy-1-methyl-3-(1H-1,2,4-triazol-1-yl)propyl]-7-(2,2,2-trifluoroethoxy)quinazolin-4(3H)-one] | 10 (≈ 20.2 µM) | 0.31 (≈ 0.626 µM) | 1.25 (≈ 2.52 µM) |  |  | 100
6 | C[C@@H](n1cnc2cc(-c3ccc(Cl)cc3)sc2c1=O)[C@](O)(Cn1cncn1)c1ccc(F)cc1F [Example 31, (1R,2R)-6-(4-Chlorophenyl)-3-[2-(2,4-difluorophenyl)-2-hydroxy-1-methyl-3-(1H-1,2,4-triazol-1-yl)propyl]thieno[3,2-d]pyrimidin-4(3H)-one] | 2.5 (≈ 4.86 µM) | ≤ 0.03 | 0.07 (≈ 0.136 µM) |  | 60-100% | 100
7 | C[C@@H](n1cnc2cc(-c3ccc(C#N)cc3)sc2c1=O)[C@](O)(Cn1cncn1)c1ccc(F)cc1F [Example 32, (1R,2R)-4-[3-[2-(2,4-Difluorophenyl)-2-hydroxy-1-methyl-3-(1H-1,2,4-triazol-1-yl)propyl]-4-oxo-3,4-dihydrothieno[3,2-d]pyrimidin-6-yl]benzonitrile] |  |  |  |  | 60-100% | 100
8 | C[C@@H](n1cnc2cc(Oc3ccc(Cl)cc3)ccc2c1=O)[C@](O)(Cn1cncn1)c1ccc(F)cc1F [Example 39, (1R,2R)-7-(4-Chlorophenoxy)-3-[2-(2,4-difluorophenyl)-2-hydroxy-1-methyl-3-(1H-1,2,4-triazol-1-yl)propyl]quinazolin-4(3H)-one] | 1.25 (≈ 2.39 µM) | ≤ 0.03 | 0.15 (≈ 0.286 µM) |  |  | 100
9 | CSc1ccc2c(=O)n([C@H](C)[C@](O)(Cn3cncn3)c3ccc(F)cc3F)cnc2c1 [Example 50, (1R,2R)-3-[2-(2,4-Difluorophenyl)-2-hydroxy-1-methyl-3-(1H-1,2,4-triazol-1-yl)propyl]-7-(methylthio)quinazolin-4(3H)-one] | 2.5 (≈ 5.64 µM) | ≤ 0.03 | 0.31 (≈ 0.699 µM) |  |  | 100
10 | CONC(=N)c1ccc(-c2cc3ncn([C@H](C)[C@](O)(Cn4cncn4)c4ccc(F)cc4F)c(=O)c3s2)cc1 [Example 67, (1R,2R)-3-[2-(2,4-Difluorophenyl)-2-hydroxy-1-methyl-3-(1H-1,2,4-triazol-1-yl)propyl]-6-[4-[imino(methoxyamino)methyl]phenyl]thieno[3,2-d]pyrimidin-4(3H)-one] | 1.25 (≈ 2.27 µM) | 0.31 (≈ 0.562 µM) | 0.63 (≈ 1.14 µM) |  |  | 100
11 | C[C@@H](n1cnc2cc(Br)ccc2c1=O)[C@](O)(Cn1cncn1)c1ccc(F)cc1F [Example 73, (1R,2R)-7-Bromo-3-[2-(2,4-difluorophenyl)-2-hydroxy-1-methyl-3-(1H-1,2,4-triazol-1-yl)propyl]quinazolin-4(3H)-one] | 0.31 (≈ 0.651 µM) | ≤ 0.03 | 0.31 (≈ 0.651 µM) | 100 | 60-100% | 
12 | C[C@@H](n1cnc2cc(I)ccc2c1=O)[C@](O)(Cn1cncn1)c1ccc(F)cc1F [Example 74, (1R,2R)-3-[2-(2,4-Difluorophenyl)-2-hydroxy-1-methyl-3-(1-H-1,2,4-triazol-1-yl)propyl]-7-iodoquinazolin-4(3H)-one] | 0.31 (≈ 0.592 µM) | ≤ 0.03 | 0.31 (≈ 0.592 µM) |  |  | 100
13 | C[C@@H](n1cnc2cc(Br)c(F)cc2c1=O)[C@](O)(Cn1cncn1)c1ccc(F)cc1F [Example 75, (1R,2R)-7-Bromo-3-[2-(2,4-difluorophenyl)-2-hydroxy-1-methyl-3-(1H-1,2,4-triazol-1-yl)propyl]-6-fluoroquinazolin-4(3H)-one] | 2.5 (≈ 5.06 µM) | 0.15 (≈ 0.303 µM) | 1.25 (≈ 2.53 µM) |  |  | 100
14 | C[C@@H](n1cnc2cc(-c3ccc(F)cc3)sc2c1=O)[C@](O)(Cn1cncn1)c1ccc(F)cc1F [Example 76, (1R,2R)-3-[2-(2,4-Difluorophenyl)-2-hydroxy-1-methyl-3-(1-H-1,2,4-triazol-1-yl)propyl]-6(4-fluorophenyl)thieno[3,2-d]pyrimidin-4(3H)-one] | 1.25 (≈ 2.51 µM) | ≤ 0.03 | 0.15 (≈ 0.302 µM) |  |  | 100
15 | C[C@@H](n1cnc2cc(-c3ccc(F)cc3)sc2c1=O)[C@](O)(Cn1cncn1)c1ccccc1F [Example 81, (1R,2R)-6-(4-Fluorophenyl)-3-[2-(2-fluorophenyl)-2-hydroxy-1-methyl-3-(1H-1,2,4-triazol-1-yl)propyl]thieno[3,2-d]pyrimidin-4(3H)-one] | 10 (≈ 20.9 µM) | ≤ 0.03 | 0.31 (≈ 0.646 µM) |  |  | 100
